Results as given in patent publication US10695322B2 (priority 2016, dated 2020).

Experiments:
Experiment in all cases: biochemical
[1] = biological target: LdtMab1, wild-type (MAB_3165c, orthologue of LdtMt1) (Mycobacteroides abscessus, UniProt B1MDC1); format: binding, Mycobacterium abscessus; settings: Figure 6; ITC, wt, protein 150 μM, ligand 2 mM, pH 8.0, 24° C.
[2] = biological target: LdtMab2, wild-type (MAB_1530, orthologue of LdtMt2; fragment without putative transmembrane domain) (Mycobacteroides abscessus, UniProt B1MMQ4); format: binding, Mycobacterium abscessus; settings: Figure 6; ITC, wt, protein 150 μM, ligand 2 mM, pH 8.0, 24° C.
LdtMt2 = LdtMt2 (Mycobacterium tuberculosis, UniProt I6Y9J2); set-up: species or system M. tuberculosis; settings: 10 μM LdtMt2, MES pH 6.5, 10° C.
Chain of LdtMt2 (I6Y9J2 56-408 limits assumed): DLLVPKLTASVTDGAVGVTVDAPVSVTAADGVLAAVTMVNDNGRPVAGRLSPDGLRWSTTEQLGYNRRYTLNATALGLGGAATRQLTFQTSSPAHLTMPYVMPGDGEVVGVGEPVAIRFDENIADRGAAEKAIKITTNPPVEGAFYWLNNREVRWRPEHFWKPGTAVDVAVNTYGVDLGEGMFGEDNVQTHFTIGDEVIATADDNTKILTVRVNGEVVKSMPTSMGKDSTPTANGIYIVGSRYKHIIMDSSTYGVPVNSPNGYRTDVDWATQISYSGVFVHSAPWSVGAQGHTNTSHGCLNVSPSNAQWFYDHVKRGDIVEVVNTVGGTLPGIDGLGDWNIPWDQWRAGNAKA

Chain of LdtMab1, wild-type (MAB_3165c, orthologue of LdtMt1) (B1MDC1 21-248): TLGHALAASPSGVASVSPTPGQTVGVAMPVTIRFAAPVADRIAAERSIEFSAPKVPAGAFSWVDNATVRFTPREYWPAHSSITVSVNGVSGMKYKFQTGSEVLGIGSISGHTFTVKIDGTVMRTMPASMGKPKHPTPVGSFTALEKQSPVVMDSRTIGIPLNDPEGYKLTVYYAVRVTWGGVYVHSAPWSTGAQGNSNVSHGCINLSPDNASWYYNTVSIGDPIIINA
Chain of LdtMab2, wild-type (MAB_1530, orthologue of LdtMt2; fragment without putative transmembrane domain) (B1MMQ4 32-406): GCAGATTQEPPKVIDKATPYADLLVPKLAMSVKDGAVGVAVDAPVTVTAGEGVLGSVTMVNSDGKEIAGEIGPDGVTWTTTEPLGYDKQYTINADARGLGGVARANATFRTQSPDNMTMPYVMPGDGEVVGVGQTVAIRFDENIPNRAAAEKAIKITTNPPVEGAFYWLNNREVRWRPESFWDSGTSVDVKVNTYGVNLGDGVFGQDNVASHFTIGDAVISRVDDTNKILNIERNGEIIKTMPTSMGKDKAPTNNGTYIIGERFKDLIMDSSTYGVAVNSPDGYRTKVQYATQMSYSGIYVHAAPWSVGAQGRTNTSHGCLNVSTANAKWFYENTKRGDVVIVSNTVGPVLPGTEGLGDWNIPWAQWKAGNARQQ

Question: Which results are given for `C[C@@H](O)[C@H]1C(=O)N2C(C(=O)O)=C(SC3CN(C4=NCCS4)C3)[C@H](C)[C@H]12` [tebipenem]?
Answer: Kd [1]: 0.82 µM; Kd [2]: 6.1 µM; Kapp (LdtMt2): 38.4 ± 9.7 µM
